Reference: patent US5336690A, “Aminosulfonyl carbamates composition and method of use to treat hypercholesterolemia and atherosclerosis” (Warner-Lambert Company, priority 1993, dated 1994)
Where a name gives a salt, the structure may show the parent alone. Read-outs that look alike come from different tables or passages of the source.

Experiments:
[1] = molecular target: T1, acyl-CoA: cholesterol acyltransferase (ACAT) (Oryctolagus cuniculus, UniProt G1SFD9); test: in vitro ACAT inhibition (IAI): formation of radiolabeled cholesterol oleate from radiolabeled oleic acid in rabbit intestinal microsomes; type: biochemical
T1 construct: tissue preparation containing rabbit intestinal microsomes; from tissue; host or cells: rabbit intestinal microsomes
T1 sequence (G1SFD9 1-524): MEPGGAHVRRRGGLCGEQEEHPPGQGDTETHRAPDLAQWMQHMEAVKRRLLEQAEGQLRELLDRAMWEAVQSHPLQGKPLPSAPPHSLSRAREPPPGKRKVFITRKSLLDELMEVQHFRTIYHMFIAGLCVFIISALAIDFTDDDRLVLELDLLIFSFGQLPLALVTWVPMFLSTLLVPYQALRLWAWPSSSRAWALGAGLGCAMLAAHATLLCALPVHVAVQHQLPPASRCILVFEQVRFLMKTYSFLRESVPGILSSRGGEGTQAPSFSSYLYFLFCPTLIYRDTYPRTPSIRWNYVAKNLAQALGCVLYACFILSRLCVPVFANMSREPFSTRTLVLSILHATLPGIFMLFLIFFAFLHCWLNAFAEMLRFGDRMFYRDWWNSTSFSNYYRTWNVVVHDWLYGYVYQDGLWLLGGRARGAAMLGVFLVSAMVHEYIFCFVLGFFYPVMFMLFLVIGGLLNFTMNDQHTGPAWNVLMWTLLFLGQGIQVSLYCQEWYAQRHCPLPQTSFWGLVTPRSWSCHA
Protocol: The ability of representative compounds of the present invention to inhibit ACAT was measured using an in vitro test more fully described in F. J. Field and R. G. Salone, Biochemica et Biophysica 712:557-570 (1982). The test assesses the ability of a test compound to inhibit the acylation of cholesterol by oleic acid by measuring the amount of radiolabeled cholesterol oleate formed from radiolabeled oleic acid in a tissue preparation containing rabbit intestinal microsomes.

[2] = APCC in vivo screen: blood cholesterol in male Sprague-Dawley rats on high fat, high cholesterol diet with 0.5% cholic acid; settings: single dose 30 mg/kg, high fat high cholesterol diet overnight; for % Change (mg/dl) (cholesterol): 30 mg/kg; for change in vivo at 30 mg/kg: read-out: % Change (mg/dl) (cholesterol)
Excerpt: In one in vivo screen designated APCC, male Sprague-Dawley rats (200 to 225 g) were randomly divided into treatment groups and dosed at 4 PM with either vehicle (CMC/Tween) or suspensions of compounds in vehicle. The normal chow diet was then replaced with a high fat, high cholesterol diet with 0.5% cholic acid. The rats consumed this diet ad libitum during the night and were sacrificed at 8 AM to obtain blood samples for cholesterol analysis using standard procedures. Statistical differences between mean cholesterol values for the same vehicle were determined using analysis of variance followed by Fisher's least significant test. The compounds were dosed at 30 mg/kg unless otherwise noted.

[3] = rabbit intestinal microsomes, read-out: IAI IC50

SMILES	IC50 [1, 3]	change in vivo at 30 mg/kg ([2]; Rattus norvegicus)	further results
COC(=O)NS(=O)(=O)Nc1c(C(C)C)cccc1C(C)C [Example 1, Methyl [[2,6-bis(1-methylethyl)phenylamino]sulfonyl]carbamate]	> 100 µM	–	–
CCCCN(CCCC)S(=O)(=O)NC(=O)Oc1c(C(C)C)cccc1C(C)C [Example 11, 2,6-Bis(1-methylethyl)phenyl[(dibutylamino)sulfonyl]carbamate]	1.9 µM	–	% Change (mg/dl) (cholesterol) ([2]; rat): -57 % Change (mg/dl)
Cc1cc(C(C)(C)C)c(OC(=O)NS(=O)(=O)N(C)CCc2ccccc2)c(C(C)(C)C)c1 [Example 27, 2,6-Bis(1,1-dimethylethyl)-4-methylphenyl[[methyl(2-phenylethyl)amino]sulfonyl]carbamate]	18.9 µM	-29%	–
Cc1cc(C(C)(C)C)c(OC(=O)NS(=O)(=O)N(C)CCc2ccccn2)c(C(C)(C)C)c1 [Example 32, 2,6-Bis(1,1-dimethylethyl)-4-methylphenyl[[[methyl 2-(2-pyridinyl)ethyl]amino]sulfonyl]carbamate, hydrochloride salt]	31 µM	–	% Change (mg/dl) (cholesterol) ([2]; rat, hydrochloride salt): -10 % Change (mg/dl)
CC(C)c1cccc(C(C)C)c1OC(=O)NS(=O)(=O)N1CCOCC1 [Example 50, 2,6-Bis(1-methylethyl)-phenyl ester(4-morpholinylsulfonyl)-carbamic acid]	> 100 µM	-14%	–
CC(C)c1cccc(C(C)C)c1OC(=O)NS(=O)(=O)N1CCCCC1 [Example 51, 2,6-Bis(1-methylethyl)-phenyl ester(1-piperidinylsulfonyl)-carbamic acid]	> 100 µM	-11%	–
CC(C)c1cccc(C(C)C)c1OC(=O)NS(=O)(=O)N1CCN(C)CC1 [Example 53, 2,6-Bis(1-methylethyl)-phenyl ester, monohydrochloride[(4-methyl-1-piperazinyl)-sulfonyl] carbamic acid]	–	–	change in vivo at 30 mg/kg ([2]; rat): -21%; IC50 [1]: > 100 µM
CC(C)c1cccc(C(C)C)c1NS(=O)(=O)NC(=O)Oc1c(-c2ccccc2)cccc1-c1ccccc1 [Example 56, [1,1':3', 1"-terphenyl]-2'-yl[[[2,6-bis(1-methylethyl)phenyl]amino]sulfonyl]carbamat]	> 25 µM	-39%	–
CCCCN(CCCC)S(=O)(=O)NC(=O)Oc1c(C(C)C)cccc1C(C)C [Example 57, 2,6-bis(1-methylethyl)phenyl[(dibutylamino)sulfonyl]carbamate monosodium salt]	–	–	% Change (mg/dl) (cholesterol) ([2]; rat, monosodium salt): -66 % Change (mg/dl)
CN(C(=O)Oc1c(C(C)(C)C)cccc1C(C)(C)C)S(=O)(=O)NC(c1ccccc1)c1ccccc1 [Example 58, 2,6-bis(1,1-dimethylethyl)phenyl[[(diphenylmethyl)amino]sulfonyl]methyl carbamate]	–	4%	–
